Reference: patent US11873496B2, “Methods of altering gene expression by perturbing transcription factor multimers that structure regulatory loops” (Whitehead Institute for Biomedical Research, priority 2017, dated 2024)
Each block holds one molecule with its values, some of them ahead of it.

Experiments:
[1] = target: T1, AID-tagged CTCF protein (UniProt P93830+Q61164+Q7XVM8); details: washout; cited from earlier work
T1 construct: The AID tag was knocked-in at the endogenous Ctcf gene locus

[2] = target: T2, AID-tagged CTCF protein (UniProt Q61164); details: AID tag knocked-in at endogenous Ctcf locus; cited from earlier work
T2 construct: The AID tag was knocked-in at the endogenous Ctcf gene locus
T2 sequence (Q61164+P93830 fused): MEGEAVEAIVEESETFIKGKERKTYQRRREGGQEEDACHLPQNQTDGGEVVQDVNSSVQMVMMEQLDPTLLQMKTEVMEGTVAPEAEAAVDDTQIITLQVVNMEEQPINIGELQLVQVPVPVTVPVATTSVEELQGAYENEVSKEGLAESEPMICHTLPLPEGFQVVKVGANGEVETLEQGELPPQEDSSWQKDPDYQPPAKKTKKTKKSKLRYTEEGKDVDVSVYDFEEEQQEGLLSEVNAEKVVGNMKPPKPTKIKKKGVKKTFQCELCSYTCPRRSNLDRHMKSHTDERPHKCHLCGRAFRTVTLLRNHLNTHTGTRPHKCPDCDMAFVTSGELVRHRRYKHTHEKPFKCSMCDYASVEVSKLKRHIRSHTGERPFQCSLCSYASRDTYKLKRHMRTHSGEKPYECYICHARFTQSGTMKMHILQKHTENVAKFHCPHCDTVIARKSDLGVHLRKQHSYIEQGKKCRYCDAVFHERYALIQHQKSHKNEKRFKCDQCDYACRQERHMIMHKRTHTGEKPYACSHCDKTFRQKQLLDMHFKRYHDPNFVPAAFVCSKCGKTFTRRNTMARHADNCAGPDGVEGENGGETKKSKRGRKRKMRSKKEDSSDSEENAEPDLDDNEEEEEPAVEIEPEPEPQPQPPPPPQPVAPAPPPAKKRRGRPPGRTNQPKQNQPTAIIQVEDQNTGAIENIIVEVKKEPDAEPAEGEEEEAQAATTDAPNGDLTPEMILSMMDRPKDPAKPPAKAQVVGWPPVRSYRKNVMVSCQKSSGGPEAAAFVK
T2 sequence (Q7XVM8 whole entry, further chain): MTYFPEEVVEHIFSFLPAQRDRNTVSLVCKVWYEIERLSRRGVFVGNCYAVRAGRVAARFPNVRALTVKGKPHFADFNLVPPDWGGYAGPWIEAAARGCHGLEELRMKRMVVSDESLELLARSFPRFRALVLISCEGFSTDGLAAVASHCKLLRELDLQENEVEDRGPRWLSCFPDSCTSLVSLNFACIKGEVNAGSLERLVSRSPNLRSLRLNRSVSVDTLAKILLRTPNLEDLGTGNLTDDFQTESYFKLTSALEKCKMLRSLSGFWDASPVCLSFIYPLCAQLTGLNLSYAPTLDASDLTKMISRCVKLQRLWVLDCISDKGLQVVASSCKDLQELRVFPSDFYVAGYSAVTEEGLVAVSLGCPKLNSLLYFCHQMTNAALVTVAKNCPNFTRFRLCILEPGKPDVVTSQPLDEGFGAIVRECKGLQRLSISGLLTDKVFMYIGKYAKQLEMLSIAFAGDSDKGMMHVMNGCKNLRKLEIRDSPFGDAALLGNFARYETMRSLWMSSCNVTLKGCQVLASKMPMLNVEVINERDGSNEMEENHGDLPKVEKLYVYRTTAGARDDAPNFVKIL
T2 sequence (Q9WTX5 whole entry partner): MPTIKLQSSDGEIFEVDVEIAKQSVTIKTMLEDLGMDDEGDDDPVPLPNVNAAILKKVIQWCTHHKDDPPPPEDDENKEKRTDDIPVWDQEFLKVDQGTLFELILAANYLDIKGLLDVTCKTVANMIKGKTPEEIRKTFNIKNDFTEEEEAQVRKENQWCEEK

[3] = target: T3, FLAG-tagged YY1 and HA-tagged YY1 (Homo sapiens, UniProt P25490); test: Co-immunoprecipitation of FLAG-tagged and HA-tagged YY1 from nuclear extracts; format: binding, mouse; details: nuclear extract treated prior to immunoprecipitation
T3 construct: expressed in transfected cells; host or cells: V6.5 mESCs, transient transfection, nuclear extract
T3 sequence (P25490 whole entry): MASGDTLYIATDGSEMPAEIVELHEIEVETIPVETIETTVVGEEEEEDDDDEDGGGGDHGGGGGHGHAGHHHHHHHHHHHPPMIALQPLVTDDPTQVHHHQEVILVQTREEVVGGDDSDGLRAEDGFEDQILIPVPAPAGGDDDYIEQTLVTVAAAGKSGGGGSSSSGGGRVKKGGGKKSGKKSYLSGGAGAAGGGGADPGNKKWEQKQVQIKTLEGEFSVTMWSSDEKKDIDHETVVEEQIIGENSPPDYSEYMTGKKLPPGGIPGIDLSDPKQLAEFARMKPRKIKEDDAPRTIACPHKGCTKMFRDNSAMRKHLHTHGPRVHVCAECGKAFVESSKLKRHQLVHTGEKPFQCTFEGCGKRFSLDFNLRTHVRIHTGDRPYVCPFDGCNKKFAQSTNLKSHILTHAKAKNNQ
T3 sequence (P25490 whole entry): as above
Experimental: V6.5 mESCs were transfected with pcDNA3 FLAG YY1 and pcDNA3 […] using Lipofectamine 3000 (Life Technologies #L3000001) according to the manufacturer's instructions. Briefly, cells were split and 8 million cells were plated onto a gelatinized 15 cm plate. 7.5 μg of each plasmid was mixed with 30 μL P3000 reagent and 75 μL Lipofectamine 3000 reagent (Life Technologies #L3000001) in 1250 μL of DMEM (Life technologies #11995-073). After ˜12-16 hours media was changed.
Cells were harvested 48 hours after transfection by washing twice with ice-cold PBS and collected by scraping in ice-cold PBS. Harvested cells were centrifuged at 1,000 rcf for 3 minutes to pellet cells. Supernatant was discarded and cell pellets were flash frozen and stored at −80° C. until ready to prepare nuclear extract. For each 15 cm plate of cells, frozen cell pellets were resuspended in 5 mL of ice-cold hypotonic lysis buffer (20 mM HEPES-KOH pH 7.5, 20% glycerol, 10 mM NaCl, 0.1% Triton X-100, 1.5 mM MgCl2, 0.5 mM DTT and protease inhibitor (Roche, 11697498001)) and incubated on ice for 10 minutes to extract nuclei. Nuclei were pelleted by centrifugation at 14,000 rcf for 10 minutes at 4° C. […] Protein concentration of extracts was quantified by BCA assay (Thermo Scientific, 23225) and protein concentration was adjusted to 400 μg/mL by addition of appropriate volume of 1:2 nuclear extraction buffer:dilution buffer. […]

[4] = target: YY1 (Homo sapiens, UniProt P25490 P25490:1-414); test: competition; 100 nM competitor abrogated YY1-enhanced circularization of template, 20 C
Chain of YY1 (P25490 whole entry, one chain of several): as the sequence (P25490 whole entry) above
Experimental: Reactions were incubated at 20° C. for 20 minutes to allow binding of YY1 to the DNA. For each timepoint 6 µL of the reaction was withdrawn and quenched in a total volume of 9 µL with a final concentration of 30 mM EDTA, 1×NEB loading dye (NEB, B7024S), 1 ug/µL of proteinase K, and heated at 65° C. for 5 minutes. Timepoint 0 was taken and then 600 units of T4 DNA ligase (NEB M0202) was added and the reaction was carried out at 20° C. Indicated timepoints were taken and then samples were run on a 4-20% TBE gradient gel for three hours at 120 V. The gel was stained with SYBR Gold (Life Technologies S11494) and imaged with a CCD camera.

T1 sequence (Q61164+P93830 fused): as the sequence (Q61164+P93830 fused) above
T1 sequence (Q7XVM8 whole entry): as the sequence (Q7XVM8 whole entry, further chain) above
T1 sequence (Q9WTX5 whole entry partner): as the sequence (Q9WTX5 whole entry partner) above

Molecule: O=C(O)Cc1c[nH]c2ccccc12 [auxin]
washout time allowing recovery of CTCF protein [1]: 2 days | CTCF protein degradation [2]: proteasome-mediated degradation

reduction in the amount of co-immunoprecipitated YY1 partner protein [3]: ~60%
B1: RNase A: RNase A (Sigma, R4642) used to treat nuclear extract (protein, UniProt P61823 27-150, looked up)
Ribonuclease pancreatic: KETAAAKFERQHMDSSTSAASSSNYCNQMMKSRNLTKDRCKPVNTFVHESLADVQAVCSQKNVACKNGQTNCYQSYSTMSITDCRETGSSKYPNCAYKTTQANKHIIVACEGNPYVPVHFDASV

B2: competitor DNA with YY1 consensus sites (dsDNA)
DNA 1: GAGCAACAACAACAACGAACCGGTTCGACCTCCCCGGCCATCTTTCGACCTCCCCGGCCATCTTTCGACCTCCCCGGCCATCTTTCGACCTCCCCGGCCATCTTTCGACCTCCCCGGCCATCTTTCGACCTCCCCGGCCATCTTTCGACCTCCCCGGCCATCTTTCGACCTCCCGTCGACAGAGGCAGCAAAAGCCAGA
DNA 2: TCTGGCTTTTGCTGCCTCTGTCGACGGGAGGTCGAAAGATGGCCGGGGAGGTCGAAAGATGGCCGGGGAGGTCGAAAGATGGCCGGGGAGGTCGAAAGATGGCCGGGGAGGTCGAAAGATGGCCGGGGAGGTCGAAAGATGGCCGGGGAGGTCGAAAGATGGCCGGGGAGGTCGAACCGGTTCGTTGTTGTTGTTGCTC
binding result [4]: binds
